Patent US11801256B2, “Antidepressant-psilocybin co-treatment to assist psychotherapy” (Universitätsspital Basel, priority 2021, dated 2023)
Read-outs that look alike come from different tables or passages of the source.

How the values were obtained:
Format in all cases: in vivo, human
healthy subjects [1] = experiment: Adjective Mood Rating Scale (AMRS); details: escitalopram 14 days pretreatment vs placebo; P=0.007
Experimental: (§1) Treatment order was random and counterbalanced.
The 60-item Adjective Mood Rating Scale (AMRS) (Janke & Debus, 1978) was administered before and 2, 3, 5, and 7 hours after psilocybin administration.
The criterion for significance was p<0.05.

healthy subjects [2] = experiment: 5 Dimensions of Altered States of Consciousness Scale (5D-ASC); details: escitalopram 14 days pretreatment vs placebo
Excerpt: as §1
5-Dimensional Altered States of Consciousness (5D-ASC): The 5-dimensional Altered States of Consciousness (5D-ASC) Scale is a visual analog scale consisting of 94 items (Dittrich, 1998; Studerus et al., 2010). The instrument contains five main scales (FIG. 17) and 11 newer subscales (FIG. 18) assessing mood, anxiety, derealization, depersonalization, changes in perception, auditory alterations, and reduced vigilance. The scale is well-validated (Studerus et al., 2010). The total ASC score is the sum of the three main dimensions/scales Oceanic Boundlessness (OB), Anxious Ego Dissolution (AED) and Visionary Restructuralization (VR). There are two additional main scales measuring Auditory Alterations (AA) and Vigilance Reduction (VIR) (FIG. 17). The 5D-ASC scale was administered once at the end of the session and subjects were instructed to retrospectively rate peak alterations that have been experienced during the study session. Each item of the scale is scored on a 0-100 mm VAS. The attribution of the individual items to the subscales of the 5D-ASC was analyzed according to (Dittrich, 1998; Studerus et al., 2010) and as shown in FIG. 18. The scale was be administered once at the end of each test session.

healthy subjects [3] = experiment: Adverse effects (list of complaints) and adverse events
Experimental: as §1
Adverse effects (list of complaints): The list of complaints (LC) consists of 66 items offering a global score measuring physical and general discomfort (Zerssen, 1976). This scale yields a total adverse effects score and reliably measures physical and general discomfort. The LC list was administered 7 hours after administration of the drug with reference to complaints throughout the entire session.

[4] = Plasma drug concentrations and pharmacokinetic analyses; details: for concentration at 14 days: human, in vivo
Experimental: The blood samples were immediately centrifuged, and the plasma was subsequently stored at −80° C. until analysis.
This allows to determine the concentrations of unconjugated psilocin and of psilocin glucuronide which corresponds to the difference between samples that were incubated with and without glucuronidase.

BDNF = experiment: Plasma BDNF levels (ELISA); details: escitalopram 14 days pretreatment vs placebo
Experimental: Psychedelics can induce neuroregeneration (Ly et al., 2018). Plasma BDNF levels are a possible biomarker for neurogenesis (Haile et al., 2014). Psychedelics increase BDNF (Holze et al., 2021; Hutten et al., 2020) and higher BDNF levels were associated with lower depression ratings after administration of psychedelics (de Almeida et al., 2019). Plasma BDNF levels were measured at baseline and 4 and 7 hours after drug administration using the Biosensis Mature BDNF Rapid ELISA Kit (Thebarton, Australia) (Akimoto et al., 2019).

healthy subjects [5] = experiment: QTc time; details: escitalopram pretreatment compared with placebo
Excerpt: Exclusion criteria: Chronic or acute medical condition, including a history of seizures. Current or previous major psychiatric disorder (e.g. psychotic disorders, mania/hypomania, anxiety disorders, and substance abuse). Psychotic disorder in first-degree relatives, not including psychotic disorders secondary to an apparent medical reason, e.g. brain injury, dementia, or lesions of the brain. Illicit substance use (with the exception of cannabis) more than 10 times or any time within the previous two months. History of an angle closure glaucoma. Pregnant or nursing women. Participation in another clinical trial (currently or within the last 30 days). […] A corrected QT time (QTc), calculated by Bazett's formula, of over 450 milliseconds in males and over 470 milliseconds in females. Tobacco smoking (>10 cigarettes/day). Consumption of alcoholic drinks (>10 drinks/week). Bodyweight <45 kg.

[6] = any time during escitalopram pretreatment
[7] = escitalopram 14 days pretreatment vs placebo

CN(C)CCC[C@@]1(c2ccc(F)cc2)OCc2cc(C#N)ccc21 [Escitalopram, escitalopram]
effect on psilocybin-induced anxiety in the AMRS (healthy subjects [1]): significantly reduced | effect on psilocybin-induced anxiety in the 5D-ASC (healthy subjects [2]; P=0.026): significantly reduced | effect on psilocybin-induced anxious ego dissolution in the 5D-ASC (healthy subjects [2]; P=0.029): significantly reduced | adverse events during pretreatment: bruxism (healthy subjects [3]; [6]): 2 subjects | adverse events during pretreatment: decreased libido (healthy subjects [3]; [6]): 5 subjects | adverse events during pretreatment: diarrhea (healthy subjects [3]; [6]): 2 subjects | adverse events during pretreatment: difficulty concentrating (healthy subjects [3]; [6]): 1 subjects | adverse events during pretreatment: dizziness (healthy subjects [3]; [6]): 2 subjects | adverse events during pretreatment: dysorgasmia (healthy subjects [3]; [6]): 2 subjects | adverse events during pretreatment: feeling depressed (healthy subjects [3]; [6]): 3 subjects | adverse events during pretreatment: headache (healthy subjects [3]; [6]): 6 subjects | adverse events during pretreatment: increased appetite (healthy subjects [3]; [6]): 2 subjects | adverse events during pretreatment: insomnia (healthy subjects [3]; [6]): 2 subjects | adverse events during pretreatment: loss of appetite (healthy subjects [3]; [6]): 3 subjects | adverse events during pretreatment: nausea (healthy subjects [3]; [6]): eight | adverse events during pretreatment: restless legs (healthy subjects [3]; [6]): 2 subjects | adverse events during pretreatment: tiredness (healthy subjects [3]; [6]): 6 subjects | adverse events during pretreatment: visual disturbance (healthy subjects [3]; [6]): 1 subjects | effect on other adverse effects of psilocybin (healthy subjects [3]; escitalopram pretreatment compared with placebo pretreatment (summary)): significantly reduced | severe adverse event (symptomatic vertebral disc hernia) (healthy subjects [3]; participant on escitalopram pretreatment, five days, prior to psilocybin): one | peak plasma concentrations (mean, range) ([4]; after 14 days escitalopram (10 mg 7 days, 20 mg 7 days)): 41 (35-53) ng/mL | effect on the pharmacokinetics of 4-HIAA [4, 7]: did not relevantly or significantly alter | effect on the pharmacokinetics of psilocin [4, 7]: did not relevantly or significantly alter | effect on the pharmacokinetics of psilocin glucuronide [4, 7]: did not relevantly or significantly alter | concentration at 14 days ([4]; after 14 days escitalopram (10 mg 7 days, 20 mg 7 days), read-out: plasma concentrations (mean, range)): 41 ng/mL | concentration at 14 days ([4]; after 14 days escitalopram, described as high, read-out: plasma concentrations in all subjects): < 35 ng/mL | effect on the psilocybin-induced moderate increase in BDNF (BDNF): did not significantly alter | QTc time before or after psilocybin administration (healthy subjects [5]): did not alter
